pKd: −log10 of the molar value.
Target: T1, KpCld (Klebsiella pneumoniae, UniProt A6TJ49)
T1 sequence (A6TJ49 1-187): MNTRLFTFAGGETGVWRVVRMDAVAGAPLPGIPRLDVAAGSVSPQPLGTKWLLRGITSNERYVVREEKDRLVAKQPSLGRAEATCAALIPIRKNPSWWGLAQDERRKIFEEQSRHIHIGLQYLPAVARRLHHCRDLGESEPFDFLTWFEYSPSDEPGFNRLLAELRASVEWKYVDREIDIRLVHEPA
Conditions: 100 mM phosphate pH 6.0; ferric enzyme; single binding site

`Br` [Br^−] showed a pKd of 1.91.
